# From the supplement of paper PMC10307832
# Tests used:
# Test in all cases: relative viability (nuclei count vs DMSO), 5 days (fraction); higher = more cells survive
# [1] = compound: O=C(/C=C/c1ccccc1)NC(NC(=S)Nc1cccc2cccnc12)C(Cl)(Cl)Cl [Salubrinal] + CS(=O)(=O)CCNCc1ccc(-c2ccc3ncnc(Nc4ccc(OCc5cccc(F)c5)c(Cl)c4)c3c2)o1 [Lapatinib] (partner 2 µM)
# Summary of the method: (§1)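 For relative viability, nuclei counts in treated wells were divided by those in vehicle wells. Lung cancer cell lines had been pin-tool dosed in 1536-well plates the day after seeding and cultured for 5 days, then fixed and stained in one step (final 0.05% Triton X-100, 1% formaldehyde, 1 ug/ml Hoechst) and imaged at 4×. Doses were one drug alone or a fixed anchor-drug dose plus five library-drug doses (not always all listed) in √10 steps, and values are duplicate-plate medians.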
# [2] = compound: Cc1ccc2nc(NCCN)c3ncc(C)n3c2c1 + O=C(CCCCCCC(=O)Nc1ccccc1)NO [Vorinostat] (partner 1 µM)
# Summary of the method: as §1
# [3] = compound: Cc1ccc2nc(NCCN)c3ncc(C)n3c2c1 + Nc1ncn([C@H]2C[C@H](O)[C@@H](CO)O2)c(=O)n1 [Decitabine] (partner 2 µM)
# Summary of the method: as §1
# [4] = compound: O=C(/C=C/c1ccccc1)NC(NC(=S)Nc1cccc2cccnc12)C(Cl)(Cl)Cl [Salubrinal] + Cc1nc(NC(=O)N2CCC[C@H]2C(N)=O)sc1-c1ccnc(C(C)(C)C(F)(F)F)c1 [Alpelisib] (partner 2 µM)
# Summary of the method: as §1
Cell Line,relative viability ([1]; first compound 0.08 µM),relative viability ([1]; first compound 0.253 µM),relative viability ([1]; first compound 0.8 µM),relative viability ([1]; first compound 2.53 µM),relative viability ([1]; first compound 8 µM),relative viability ([2]; first compound 0.04 µM),relative viability ([2]; first compound 0.1265 µM),relative viability ([2]; first compound 0.4 µM),relative viability ([2]; first compound 1.265 µM),relative viability ([2]; first compound 4 µM),relative viability ([3]; first compound 0.04 µM),relative viability ([3]; first compound 0.1265 µM),relative viability ([3]; first compound 0.4 µM),relative viability ([3]; first compound 1.265 µM),relative viability ([3]; first compound 4 µM),relative viability ([4]; first compound 0.08 µM),relative viability ([4]; first compound 0.253 µM),relative viability ([4]; first compound 0.8 µM),relative viability ([4]; first compound 2.53 µM),relative viability ([4]; first compound 8 µM)
201T,1.03,1.06,1.06,1.07,1.06,0.969,0.975,0.887,1.05,1.02,0.838,0.818,0.862,0.901,0.839,1.07,0.999,1.05,1.02,1.01
A549,1.08,0.954,1.03,0.939,0.886,,,,,,0.281,0.238,0.207,0.299,0.219,0.726,0.806,0.755,0.76,0.616
A-427,1.09,0.966,1.11,0.961,1.03,0.9,0.844,0.852,0.876,0.89,0.557,0.561,0.547,0.58,0.539,1.06,1.16,1.17,1.16,1.15
ABC-1,1.46,1.35,1.17,1.25,1.15,1.32,1.12,1.39,0.989,0.836,1.14,1.32,1.12,0.87,1.3,1,0.952,1.2,1,1.12
BEN,0.677,0.732,0.751,0.767,0.894,0.544,0.579,0.505,0.636,0.555,0.623,0.737,0.686,0.885,0.685,1.23,0.82,1.3,1,1.03
CAL-12T,0.804,0.688,0.629,0.663,0.636,0.77,0.711,0.882,0.65,0.629,,,,,,1.6,0.712,1.31,1.17,1.02
COR-L23,1.38,0.626,1.37,1,0.539,0.511,0.46,0.417,0.374,0.375,0.455,0.405,0.406,0.488,0.411,0.908,0.792,0.875,0.965,0.631
COR-L 105,0.377,0.317,0.395,0.389,0.35,0.658,1.13,0.845,0.911,0.768,0.758,0.738,0.722,0.673,0.632,1.01,0.906,1.04,1.06,0.831
Calu-6,1.28,1.03,1.27,1.08,1.06,,,,,,,,,,,0.94,0.936,1.07,1.04,0.942
ChaGo-K-1,,,,,,0.751,0.832,0.771,0.657,0.766,0.542,0.546,0.511,0.545,0.512,,,,,
EBC-1,0.191,0.289,0.187,0.167,0.198,,,,,,,,,,,0.869,0.952,0.976,0.811,0.736
EKVX,0.2,0.239,0.199,0.181,0.216,0.835,0.676,0.603,0.752,0.737,0.335,0.35,0.345,0.32,0.28,1.14,0.729,1.01,0.887,0.88
EMC-BAC-2,0.823,0.815,0.947,0.865,0.938,0.467,0.433,0.455,0.527,0.392,0.973,1.01,0.989,1.06,0.966,0.802,0.709,0.786,0.82,0.702
EPLC-272H,0.838,0.804,1.32,0.93,0.761,0.564,0.406,0.279,0.374,0.415,0.386,0.386,0.395,0.341,0.327,1.01,0.798,1.07,0.996,0.787
H3255,0.241,0.253,0.191,0.233,0.226,0.831,0.832,0.629,0.706,0.653,0.594,0.611,0.546,0.69,0.702,0.913,0.676,0.762,0.693,0.769
HARA,0.709,0.651,0.819,0.748,0.828,0.473,0.648,0.422,0.499,0.426,0.492,0.758,0.651,0.419,0.546,0.948,0.931,0.848,0.937,0.78
HCC-15,0.902,0.736,1,0.88,0.875,0.852,0.873,0.78,0.78,0.744,0.624,0.693,0.474,0.598,0.522,0.988,0.789,0.994,0.94,0.945
HCC-44,0.91,0.743,1.1,0.97,0.939,0.981,1.05,1.09,1.08,1.11,0.981,0.946,0.923,0.94,1,0.904,0.758,0.806,0.84,0.671
